From US20220267394A1, “COMPOUNDS FOR INDUCING TISSUE FORMATION AND USES THEREOF” (HISTIDE AG, priority 2015, published 2022) come the findings set out here.

Where no end group is shown, it is not given here.

The subject of series [1] is hMSCs. The experiment in a line: Cartilage regeneration: chondrocyte differentiation of hMSCs on 14 kPa hydrogels (Sox9, Aggrecan). The format is cell-based, human. As to conditions: 14 kPa hydrogels covalently modified with peptides, 96 hours. The procedure:
Total RNA was extracted by using the RNeasy total RNA kit (Qiagen®) according to the manufacturer's instructions. Purified total RNA was used as a template in order to make cDNA by a reverse transcription reaction (Gibco Brl®) with random primers (Invitrogen®). The cDNA was then used as a template for a real-time PCR amplification in the presence of SYBR green reagents (Bio-Rad®) by using a thermocycler (iCycler, Biorad®). Data were analyzed with the iCycler IQ™® software and compared by the ΔΔCt method. […]
Total RNA was extracted by using the RNeasy Mini Kit (Qiagen) and […] RNA was used for cDNA synthesis with AMV kit (Invitrogen®) according to the manufacturer' instructions. Semi-quantitative reverse transcriptase-polymerase chain reaction (RT-PCR) was performed with Taq DNA Polymerase (Invitrogen®) in a thermocycler (Bio-Rad®). […] The PCR products were analyzed on 2% agarose gels. For the Aggrecan gene, the PCR bands were densitometrically quantified by using the BioCapt software (Vilber). […]
It was then verified that these hMSCs cultured on the covalently modified hydrogels were differentiated into chondrocyte cells by analyzing the expression of the chondrocyte gene biomarker: Aggrecan. […] For that a semi-quantitative RT-PCR was performed as described in the Methods section for the Aggrecan gene and a Quantitative Real Time PCR for Sox9.

Series [2] deals with hMSCs. Briefly: Loss of stemness: STRO-1 expression by immunostaining. The format is cell-based, human. The essentials: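 hMSCs cultured on plastic with GFR-binding peptides in solution (some sequences tested with a bioactive carrier), then fixed, permeabilized and immunostained for Stro-1. Stro-1-positive contact number and area quantified by thresholded image analysis, minimum 30 cells per condition.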

The subject of another series is Hair Follicle Stem Cells. The experiment in a line: Loss of quiescence and activation of hair follicle stem cells on 73 kPa hydrogels (Sox2, BMP-6 release). The format is cell-based, mouse. As to conditions: 73 kPa hydrogels covalently modified with peptides. The source says:
The following starting materials and reagents were used: • Apatite ceramics (also called apatite or ceramic in the present invention) were synthetized as described in Mater Res. 2004; 7(4): 625-630. • Titanium was obtained from Goodfellow®. • Hydrogel (poly(acrylamide-co-acrylic acid) gel) was synthetized as described in Langmuir 2011; 27(22):13635-42. • PEEK was obtained from Goodfellow®. • PET (Poly(ethylene terephthalate) was obtained from Goodfellow®. • Type-I collagen sponge was obtained from Sigma®. • Hexane was obtained from Sigma®. • 3-succinimidyl-3-maleimidopropionate (SMP) was obtained from Sigma®. • DMF was obtained from Sigma®. • PBS 1× was obtained from Gibco®. • 3-(ethoxydimethylsilyl)propylamine was obtained from Sigma®. • Ammonium persulfate was obtained from Biorad®. • N,N,N′,N′-tetramethylethylenediamine was obtained from Aldrich®. • Acrylamid was obtained from Merck®. • Acrylic acid was obtained from Merck®. • N,N-methylene-bis-acrylamide was obtained from Merck®. • NaOH was obtained from Aldrich®. • N,N,N′,N′-tetramethylethylenediamine was obtained from Aldrich®. • Dimethylaminopropyl-3-ethylcarbodiimide hydrochloride was obtained from Aldrich®. • N-hydroxysuccinimide was obtained from Aldrich®. • 2-(N-morpholino)-ethane sulfonic acid was obtained from Aldrich®. • MilliQ water: is water characterised in terms of resistivity (typically 18.2 MΩ·cm at 25° C.). • Low glucose Dulbecco's Modified Eagle Medium (DMEM) was obtained from Invitrogen® • Minimum Essential Medium Eagle without ascorbic acid (αMEM) was obtained from Invitrogen®. • All of the cell culture experiments were carried out without any serum in the medium for the first 8 hours of culture. • Osteoblast progenitors or precursor osteoblasts: MC3T3-E1 cells were obtained from ATCC®. These cells were cultured in Alpha-MEM medium supplemented with 10% fetal calf serum (FCS) and 1% penicillin/streptomycin. All cells were used at a low passage number (passage 7), were subconfluently cultured and were seeded at 10^4 cells/cm^2 for the purpose of the experiments. • Human bone marrow Mesenchymal Stem Cells (hMSCs) were obtained from Lonza®. These cells were cultured in Alpha-MEM supplemented with 10% (v/v) FBS and 1% penicillin/streptomycin and incubated in a humidified atmosphere containing 5% (v/v) CO2 at 37° C. All cells were used at a low passage number (passage 2 to 4), were subconfluently cultured and were seeded at 10^4 cells/cm^2 for the purpose of the experiments. • Human adipose Mesenchymal Stem Cells (haMSCs) were obtained from Lonza®. These cells were cultured in Alpha-MEM supplemented with 10% (v/v) FBS and 1% penicillin/streptomycin and incubated in a humidified atmosphere containing 5% (v/v) CO2 at 37° C. […]

The nature of series [3]: Stability of non-covalent deposit of FITC-labelled peptides on apatite ceramics or type-I collagen sponge. As to conditions: non-covalent coating, after 3, 7 or 10 days. The series is classed as physicochemical. As for the experimental part:
Non-covalent modifications of the materials were performed in air atmosphere at room temperature. The non-covalent coating strategy consisted in using a mixture of inducing peptide (SEQ ID NO: 23; concentration of 1×10^−3M) with an apatite ceramics implant or a mixture of inducing peptide (SEQ ID NO: 22; concentration of 1×10^−3M) with a type-I collagen sponge. The non-covalently coated conventional materials were characterized by using fluorescent peptides (Here SEQ ID NO: 22 and 23 covalently bound to fluorescein isothiocyanate (FITC), FIG. 6). The results shown here in FIG. 6 were obtained from experiments performed with apatite ceramics and a type-I collagen sponge. […] Indeed, after 3, 7 or 10 days, the osteogenic peptides were still coupled to the ceramics or the type-I collagen (FIGS. 7a and b).

For series [4], the system named is Neurons (Neuronal Schwann Cells). Briefly: Neuron growth on titanium (dendrite growth, GAP43 Q-PCR). The series is classed as cell-based. As to conditions: titanium covalently modified with peptide.
Text: […]

The subject of series [5] is Human Mesenchymal Stem Cells (hMSCs). Briefly: Osteogenic differentiation of human mesenchymal stem cells (Runx2/Osterix immunostaining, ALP activity). The format is cell-based. As to conditions: type-I collagen sponge coupled with peptide, 1 week of culture.
The test system of series [6] is hMSCs. The experiment in a line: CD-105 expression by immunostaining. The format is cell-based, human. As to conditions: Table 7, previously reported peptides in solution (not combined with a bioactive carrier). The procedure:
For this type of quantification the freeware image analysis ImageJ® software was used. The raw image was first converted to an 8-bit file, and then the unsharp mask feature was used (settings 1:0.2) to remove the image background (rolling ball radius 10). After smoothing, the resulting image, which appears similar to the original photomicrograph but with minimal background, was then converted to a binary image by setting a threshold. Threshold values were determined empirically by selecting a setting, which gave the most accurate binary image for a subset of randomly selected photomicrographs. The cell area was determined by manual delineation on raw fluorescent images. Total contact area and mean contact area per cell were calculated by “analyse particules” in ImageJ®. A minimum of 30 cells per condition were analyzed. Stro-1, CD-34+, and CD-105 expressions were determined using this procedure.
Likewise, using the method detailed in the description, the RMSD of another 27 previously reported peptide sequences have been determined (Table 7) and correlated with the expressions of STRO-1 and CD-105 in solution. […] Data were obtained with peptides in solution (i.e. not combined with a bioactive carrier).

Setting [7] is: Table 8, SEQ ID NO: 1 to 49 tested in combination with a bioactive carrier (titanium, ceramics, collagen, etc.).
The mark [8] stands for this setting: Table 7, previously reported peptides in solution (not combined with a bioactive carrier).

On to “37 (CASAAPSSVPQALEPLPIVYYVGRTPKVEQLSNMIVRSSK; not fully specified; ends and bridges not checked) [compound 37]”, for which the Sox9 protein expression result in the series with hMSCs [1] is given as “expression of the Sox9 protein was observed”. In the series on hMSCs [2] (setting [7]), the “STRO-1 expression (%)” value came out at 21%.
Turning to “42 (CGIPEPSSVPEKTSSLSLLFFDENKNVVLKVYPNM; not fully specified; ends and bridges not checked) [compound 42]”, in the series with Hair Follicle Stem Cells, the “BMP-6 release in the cell culture medium” value is given as “decrease” and the Sox2 protein expression result was “increase”. Also, the “STRO-1 expression (%)” value with hMSCs [2] (setting [7]) is on record as 28%.
On to “WWFWGKVPKPSSAPTQLSAISTLYLDEYDKVVLKNYQNMVVR (WWFWGKVPKPXXAPTQLSAISTLYLDEYDKVVLKNYQNMVVR; GFR-binding peptide; MOD_RES (11), (12): Xaa is C or S) [SEQ ID NO: 22]”, for which the “release of peptide from type-I collagen sponge over time” value in series [3] is reported as “no significant release”.
As to “CTVPKPSSAPTQLSPISILYIDAANNVVYKQYEDMVVRA (CTVPKPXXAPTQLSPISILYIDAANNVVYKQYEDMVVRA; GFR-binding peptide; MOD_RES (7), (8): Xaa is C or S) [SEQ ID NO: 49]”, in series [4] (6 hours), the “establishment of cell-cell contacts via dendrite growth” value is “rapid establishment”. Also, the “Growth Associated Protein 43 (GAP43) gene expression (Q-PCR)” value in series [4] (48 hours) is recorded as “high level of expression”.
“WWFWGKASSVPTELSPISTLYKDENEKVVLKYHYDMVVEGSGSR (WWFWGKASSVPTELSPISTLYKDENEKVVLKYHYDMVVEGXGXR; GFR-binding peptide; MOD_RES (41), (43): Xaa is C or S) [SEQ ID NO: 32]”: the “ALP (Alkaline Phosphatase) activity” value in series [5] was “increase”.
Consider “GTPGPKVPKPSSAPTQLSAISTLYLDEYDKVVLKNYQNMAVR (GTPGPKVPKPXXAPTQLSAISTLYLDEYDKVVLKNYQNMAVR; GFR-binding peptide; MOD_RES (11), (12): Xaa is C or S) [SEQ ID NO: 23]”, for which the “release of peptide from apatite ceramics over time” value in series [3] was “no significant release”.
With “CGIPEPSSVPEKMSSLSILFFDENKNVVLKVYPNM (CGIPEPXXVPEKMSSLSILFFDENKNVVLKVYPNM; GFR-binding peptide; MOD_RES (7), (8): Xaa is C or S) [SEQ ID NO: 41]”, in the series on Hair Follicle Stem Cells, the “BMP-6 release in the cell culture medium” value was “decrease” and the Sox2 protein expression entry was “increase”.
With “2240 (KPCCAPTELSAISVLYFDDSSNVILKKYEDMVVEACGCR; Peptide reported in US20050250936, SEQ ID NO:119) [compound 2240]”, in the series with hMSCs [2] (setting [8]), the “STRO-1 expression (%)” value was 73%. The “CD-105 expression (%)” value in the series with hMSCs [6] is given as 69%.
The like results for “2230 (CCVPERLSPISVLFFDNEDNVVLRHYEDMVVDECGCR; Comparative sequence) [compound 2230]” were, in that order, 81% and 78%.
Turning to “CKIPKASSVPTELEPLPIVYYVGRKPKVEQLSNMIVRS (CKIPKAXXVPTELEPLPIVYYVGRKPKVEQLSNMIVRS; GFR-binding peptide; MOD_RES (7), (8): Xaa is C or S) [SEQ ID NO: 36]”, the Sox9 protein expression entry in the series on hMSCs [1] is reported as “expression of the Sox9 protein was observed”.
On to “2235 (APTALSAISMLYFDESGNVVLRQYEDMVVEG; Peptide reported in US20120244575, SEQ ID NO:4400) [compound 2235]”, for which the “STRO-1 expression (%)” value in the series with hMSCs [2] (setting [8]) came to 77%. Besides, the “CD-105 expression (%)” value in the series on hMSCs [6] is on record as 63%.
